This is an account of results in patent US20230352114A1, “METHODS OF PROVIDING MODULATORS OF TAU AGGREGATION” (GTInvent Limited, priority 2020, published 2023).

The target of experiment [1] is T1, dGAE (Homo sapiens, UniProt P10636).
T1 construct: Recombinant tau297-391 (dGAE) was produced and purified from; made in house; host or cells: E. coli
Briefly: protease digestion (Proteinase K / Pronase E) of assembled dGAE, SDS-PAGE. Conditions: 100 μM dGAE, 10 mM DTT, ratios up to 1:5, 72 hours. In kind it is biochemical.
Description: Protease digestion: 100 μM dGAE with 10 mM DTT in phosphate buffer (20 mM, pH 7.4), with or without MTC at ratios up to 1:5 was agitated at 700 rpm, 37° C. for 72 hours. 10 μg aliquots were digested with increasing concentrations of Proteinase K (PK), Pronase E (PE), or left untreated. The digestion was carried out at 37° C. for 1 hour then the reaction was stopped with 1 mM Pefabloc and samples were placed on ice for 5 minutes. Sample buffer without any reducing agent was added, incubated for 5 minutes at room temperature then loaded onto a gel.
Soluble or fibrils of dGAE (100 μM) in reducing conditions (10 mM DTT) were incubated with increasing concentrations of proteinase K or Pronase E then samples were run on SDS-PAGE.

The target of experiment [2] is T1, dGAE. Kind of experiment: sandwich ELISA epitope occlusion assay of dGAE aggregates with core region scAbs. In kind it is biochemical. Conditions: dGAE with DTT, 1:5 ratio, 24 h at 37° C.; total and supernatant samples. An excerpt: The truncated core repeat domain dGAE (297-391), is the predominant fragment that constitutes bulk of the PHF core in AD (Wischik et al, 1988). During dGAE aggregation in vitro, scAb binding regions on dGAE are ‘hidden’ or ‘occluded’ which leads to a loss of immunoreactivity in aggregation samples. Here we have shown the occlusion of binding regions in aggregated dGAE samples and the recovery of immunoreactivity in the presence of LMTM, a tau-aggregation inhibitor. For preparing the aggregates, 10 μl 10 mM DTT was added to 1000 μl 100 μM dGAE and agitated with/without LMTM (1:5 ratio) at 700 rpm for 24 h at 37° C. Following overnight agitation, one third of each sample was kept aside as ‘total’ and the rest was spun down at 16000×g for 30 min and separated into ‘supernatant’ and ‘pellet’. The pellet was then resuspended in half the original volume for further experiments. The immunoreactivities of core region specific scAbs towards dGAE aggregates formed with/without LMTM was tested using a sandwich ELISA format using a ‘E’ specific monoclonal antibody 423 mAb. […] ELISA plates were coated with 10 μg/ml 423 mAb and blocked as normal. Doubling dilutions of dGAE aggregate ‘total’, ‘supernatant’ and ‘pellet’ samples at 10 μg/ml starting concentration were added to designated wells in doubling dilutions in 1×PBS. dGAE monomer (non-aggregated) was included as assay control. […]

The subject of a further experiment is Tau aggregation. Briefly: cell-based tau aggregation assay (Rickard et al., 2017). Conditions: tau aggregation inhibition.
The conditions of experiment [3]: clinical evidence; fold lower; cited from earlier work.

Molecules are shown by their SMILES. Entries after “also recorded” stand apart in the source; their conditions may differ.

T1 sequence (P10636 614-708): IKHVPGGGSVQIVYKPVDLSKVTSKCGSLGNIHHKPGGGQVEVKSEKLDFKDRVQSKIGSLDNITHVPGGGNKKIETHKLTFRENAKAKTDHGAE
Description for Tau aggregation: Selected or designed compounds may further be synthesised or obtained and tested for their ability to modulate Tau aggregation, for example in a cell-based aggregation assay as described in Rickard et al., 2017.
These compounds were assessed in a cell-based Tau aggregation assay. […] The substituents were designed to test the required strength of hydrogen bonds with the pocket, as well as optimal orientation for hydrophobic and pi interactions.

Take `CN(C)c1ccc2c(c1)Sc1cc(N(C)C)ccc1N2` [LMT, leuco-methylthioninium]: at dGAE [1], the “formation of protease resistant core of dGAE” value was “loss of protease resistance; also recorded: prevents the formation of a protease resistant core”. In addition, the “immunoreactivity of core region scAbs to dGAE aggregated in presence of the compound” value at dGAE [2] is listed as “loss of immunoreactivity could be prevented”. Besides, the 50% effective concentration (EC50) – broadly, the midpoint of the concentration-response curve – in the experiment on Tau aggregation is 96 nM.

Turning to `CN(C)c1ccc2c(c1)Sc1cc(N(C)C)ccc1N2.CS(=O)(=O)O.CS(=O)(=O)O` [LMTM, hydromethylthioninium mesylate], the “effective dose relative to minimum effective dose of the oxidized MT+ form” value in experiment [3] is listed as 20 fold. The “immunoreactivity of core region scAbs to dGAE aggregated in presence of the compound” value at dGAE [2] is reported as “increase in immunoreactivity; also recorded: increased binding”.
